Literature values as cited in patent US20190202814A1, “PROCESSES FOR PREPARATION OF EMPAGLIFLOZIN” (CADILA HEALTHCARE LIMITED, priority 2015, published 2019).

What was measured:
[1] = crystalline solid

solubility in acetonitrile (acetonitrile): very slightly soluble
solubility in ethanol (ethanol): very slightly soluble
solubility in methanol (methanol): sparingly soluble
solubility in toluene (toluene): practically insoluble
solubility in water (water): very slightly soluble
hygroscopicity [1]: non-hygroscopic
Compound: OC[C@H]1O[C@@H](c2ccc(Cl)c(Cc3ccc(O[C@H]4CCOC4)cc3)c2)[C@H](O)[C@@H](O)[C@@H]1O [Empagliflozin, (1S)-1,5-anhydro-1-{4-chloro-3-(4-[(3S)-tetrahydrofuran-3-yloxy]benzyl}phenyl)-D-glucitol]
